Data taken from patent US20260185054A1, “METHOD FOR PRODUCING METABOLICALLY ACTIVATED LIVER ORGANOID, COMPOSITION, AND METHOD FOR EVALUATING TEST SUBSTANCE” (JSR CORPORATION, priority 2023, published 2026).

B1: prolactin: hormone from prolactin-secreting cells of the anterior pituitary; prolactin receptor agonist (PeproTech 100-07) (protein, UniProt P01236 29-227, looked up)
Prolactin: LPICPGGAARCQVTLRDLFDRAVVLSHYIHNLSSEMFSEFDKRYTHGRGFITKAINSCHTSSLATPEDKEQAQQMNQKDFLSLIVSILRSWNEPLYHLVTEVRGMQEAPEAILSKAVEIEEQTKRLLEGMELIVSQVHPETKENEIYPVWSGLPSLQMADEESRLSAYYNLLHCLRRDSHKIDNYLKLLKCRIIHNNNC

What was measured:
Assay type in all cases: cell-based, human
[1] = test system: gluconeogenesis-related genes, urea production-related genes and CYP genes in liver organoid; assay: Quantitative real-time PCR of liver organoids, A83-01 removed from differentiation medium; details: liver organoids cultured in DM medium from which A83-01 had been removed, versus DM medium
Source text: A liver organoid was produced in the same manner as in Experimental Example 3, except that the transforming growth factor β receptor antagonist (A83-01) was removed from the differentiation medium (DM medium), and the expression of the gluconeogenesis-related genes, the urea production-related genes, and the CYP genes was examined by quantitative real-time PCR.
(§1) A total RNA was extracted from cells using Direct-zol RNA Kit micro (Zymo Research, catalog number: #R2063), and a reverse transcription reaction was carried out using a PrimeScript RT Master Mix (Takara Bio, catalog number: RR036A) to obtain a cDNA. Subsequently, quantitative real-time PCR was performed using LightCycler 480 System (Roche) and using TB Green Premix Ex Taq II (Takara Bio, catalog number: #RR820A). The cDNA of the primary human hepatocyte was diluted to create a calibration curve.

liver organoid [2] = assay: Gluconeogenesis of liver organoid (glucose quantified in medium supernatant, Glucose-Glo Assay); details: for gluconeogenesis of the liver organoid: glucose corrected by ATP, donor 9
Method: Subsequently, the medium was replaced with a Gluconogenesis assay medium having the composition shown in Table 4 below (hereinafter sometimes referred to as a “GM medium”), and incubation was performed for 24 hours in an environment of 37° C., 1 atm, and a CO2 concentration of 5 v/v %. The supernatant of the medium after the incubation was collected, and glucose and urea included in the medium were quantified. The measurement results will be described later.
The glucose was measured according to a protocol of the manufacturer using a Glucose-Glo™ Assay (Promega, catalog number: J6022). […]
In addition, the liver organoid after the incubation were washed three times with Fasting Medium (hereinafter sometimes referred to as an “FM medium”) having the composition shown in Table 3, FM was added thereto at 500 μL/well, and incubation was performed for 18 hours in an environment of 37° C., 1 atm, and a CO2 concentration of 5 v/v %.
Subsequently, the medium was replaced with a Gluconogenesis assay medium having the composition shown in Table 4 (hereinafter sometimes referred to as a “GM medium”), and incubation was performed for 24 hours in an environment of 37° C., 1 atm, and a CO2 concentration of 5 v/v %. The supernatant of the medium after the incubation was collected, and glucose and urea included in the medium were quantified. The quantification of glucose and urea was performed in the same manner as in Experimental Example 1. The measurement results will be described later.
The medium of the liver organoid, which had been produced in the same manner as in Experimental Example 2 and expansion-cultured for 2 weeks, was replaced with a differentiation medium (hereinafter sometimes referred to as a “DM medium”) having the composition shown in Table 6 below at 500 μL/well, and incubated for 2 weeks in an environment of 37° C., 1 atm, and a CO2 concentration of 5 v/v %. The medium was replaced every 7 days.
Subsequently, gluconeogenesis, urea production, albumin production, and bile acid production of the liver organoid were evaluated in the same manner as in Experimental Example 2. The results of the amount of glucose produced and the amount of urea produced will be described later.

liver organoid [3] = assay: Urea production of liver organoid (Quantichrom Urea Assay Kit); details: metformin 1 mM or 10 mM added to MM, FM and GM medium; organoid cultured in DM medium
Method: The urea was measured according to a protocol of the manufacturer using Quantichrom Urea Assay Kit (Bioassay Systems, catalog number: DIUR-100).

[4] = test system: gluconeogenesis-related genes (FBP1, PCK1) in liver organoid; assay: Quantitative real-time PCR of liver organoids, gluconeogenesis medium composition changed; details: 1 μM insulin in GM medium with 200 pg/mL glucagon and 400 ng/mL cortisol; FM 6 hours, GM 4 hours; donor 2
Method: A GM medium obtained by removing glucagon and cortisol from the gluconeogenesis medium (GM medium) having the composition shown in Table 4, and further adding the components shown in Table 15 was prepared. Liver organoids were produced in the same manner as in Experimental Example 3, except that the incubation was performed for 6 hours after the addition of the FM medium and then the incubation was performed for 4 hours after the addition of the GM medium. In addition, the donor of the primary human hepatocyte used for the production of the liver organoid was a donor 2.
as §1, with “Subsequently, the expression of various genes in each of the produced liver organoids was analyzed by quantitative real-time PCR (qPCR). Specifically, a total” for “A total”

[5] = factor included in differentiation medium at varied concentrations (Tables 9, 10)
[6] = factor included in gluconeogenesis medium (Tables 17, 18)

Molecule | gluconeogenesis of the liver organoid (liver organoid [2]; [5]) | gluconeogenesis of the liver organoid (liver organoid [2]; [6]) | other results
Cc1cccc(-c2nn(C(=S)Nc3ccccc3)cc2-c2ccnc3ccccc23)n1 [A83-01] |  |  | expression of the gluconeogenesis-related genes, the urea production-related genes, and the CYP genes [1]: decreased
C[C@]12CCC(=O)C=C1CC[C@@H]1[C@@H]2[C@@H](O)C[C@@]2(C)[C@H]1CC[C@]2(O)C(=O)CO [cortisol, reference compound] | improved in a manner dependent on the concentrations of added factors | improved | 
CN(C)C(=N)N=C(N)N [metformin, reference compound] |  |  | gluconeogenesis in the liver organoid (liver organoid [2]; metformin 1 mM or 10 mM added to MM, FM and GM medium, organoid cultured in DM medium): suppressed; urea production in the liver organoid (liver organoid [3]): suppressed
glucagon: hormone that increases blood glucose level through glycogenolysis and gluconeogenesis in the liver (Sigma G2044) |  | improved | 
growth hormone: hormone secreted from the anterior pituitary; growth hormone receptor agonist (PeproTech 100-40) | improved in a manner dependent on the concentrations of added factors | improved | 
insulin: insulin added at 1 μM to the gluconeogenesis medium |  |  | expression of the gluconeogenesis-related genes [4]: suppresses
B1 | improved in a manner dependent on the concentrations of added factors | improved | 
